The text below walks through data of article PMC3204421 (Frontiers in Pharmacology, 2011).

Experiment [1] deals with T1, GIRK1/GIRK2 channels (AtT20 cells) (Mus musculus, UniProt P48542+P63250).
T1 sequence (P63250 1-501): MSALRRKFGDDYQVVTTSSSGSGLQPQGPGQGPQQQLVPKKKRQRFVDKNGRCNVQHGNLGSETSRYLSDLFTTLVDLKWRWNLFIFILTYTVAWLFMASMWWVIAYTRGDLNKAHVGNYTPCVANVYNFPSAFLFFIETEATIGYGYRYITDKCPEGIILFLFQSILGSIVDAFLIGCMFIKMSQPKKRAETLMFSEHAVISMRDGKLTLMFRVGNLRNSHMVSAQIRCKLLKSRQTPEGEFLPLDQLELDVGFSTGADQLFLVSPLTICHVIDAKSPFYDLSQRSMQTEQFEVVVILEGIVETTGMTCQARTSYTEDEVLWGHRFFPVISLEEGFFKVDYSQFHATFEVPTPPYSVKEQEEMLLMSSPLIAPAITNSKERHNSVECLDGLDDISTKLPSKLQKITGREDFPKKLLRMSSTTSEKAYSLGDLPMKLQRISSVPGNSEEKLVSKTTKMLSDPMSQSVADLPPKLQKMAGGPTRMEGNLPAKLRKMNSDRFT
T1 sequence (P48542 1-425): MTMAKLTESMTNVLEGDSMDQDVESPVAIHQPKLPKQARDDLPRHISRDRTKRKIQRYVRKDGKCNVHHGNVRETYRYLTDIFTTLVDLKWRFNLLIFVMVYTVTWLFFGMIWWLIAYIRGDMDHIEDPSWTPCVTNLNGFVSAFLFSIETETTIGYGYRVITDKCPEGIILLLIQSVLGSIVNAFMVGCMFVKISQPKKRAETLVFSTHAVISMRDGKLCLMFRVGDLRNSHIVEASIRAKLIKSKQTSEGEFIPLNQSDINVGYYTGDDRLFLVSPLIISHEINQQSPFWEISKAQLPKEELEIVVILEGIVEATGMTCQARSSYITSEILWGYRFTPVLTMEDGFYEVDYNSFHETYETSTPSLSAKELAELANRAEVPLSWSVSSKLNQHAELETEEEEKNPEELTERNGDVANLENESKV
The experiment in a line: GIRK channel fluorescent plate reader assay. Type of experiment: cell-based.

In the next experiment the test system is GIRK1/GIRK4 channels. Conditions: ref Hashimoto et al., [2008]; Machida et al., [2011]; cited from earlier work.
The subject of a further experiment is atrial fibrillation. Conditions: ref Hashimoto et al., [2008]; Machida et al., [2011]; cited from earlier work.
For experiment [2], the target named is T2, GIRK1/GIRK4 channel (cardiac HL-1 cells) (Mus musculus, UniProt P48545+P63250).
T2 sequence (P63250 1-501): T1 sequence (P63250 1-501)
T2 sequence (P48545 1-419): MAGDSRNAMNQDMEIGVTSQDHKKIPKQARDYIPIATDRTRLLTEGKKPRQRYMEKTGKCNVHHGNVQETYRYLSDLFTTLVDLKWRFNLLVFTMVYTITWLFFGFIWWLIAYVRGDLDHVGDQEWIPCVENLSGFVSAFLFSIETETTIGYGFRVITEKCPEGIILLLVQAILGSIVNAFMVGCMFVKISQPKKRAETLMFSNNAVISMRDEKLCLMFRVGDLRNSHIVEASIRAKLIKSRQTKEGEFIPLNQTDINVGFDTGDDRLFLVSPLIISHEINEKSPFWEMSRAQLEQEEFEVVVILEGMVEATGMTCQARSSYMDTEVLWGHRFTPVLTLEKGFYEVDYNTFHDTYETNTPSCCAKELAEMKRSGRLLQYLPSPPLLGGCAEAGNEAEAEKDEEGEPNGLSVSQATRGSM
The experiment in a line: GIRK channel fluorescent plate reader assay. Type of experiment: cell-based.

As to `[Ba+2].[Cl-].[Cl-]` [BaCl2], the “reduction of the somatostatin-mediated fluorescent change” value was 67 ± 4% in experiment [1] (0.5 mM, AtT20 cells, n = 6 wells) and 92 ± 2% in experiment [1] (1 mM, AtT20 cells, n = 6 wells). Also, the “inhibition of the somatostatin-mediated fluorescent change” value in experiment [1] (2 mM, 5 min pretreatment, AtT20 cells) was “complete inhibition”.
As for `C[N+](C)(C)CCOC(N)=O` [carbachol], in experiment [1], the EC50 amounted to 1000 nM. Further, the peak fluorescent change in experiment [1] (AtT20 cells, n = 6 wells) is −0.037.
Consider `[Cl-].[K+]` [KCl], for which the “fluorescent change (F/FO)” value was 0.058 in experiment [1] (10 mM KCl, depolarization, AtT20 cells); 0.13 in experiment [1] (20 mM KCl, depolarization, AtT20 cells); 0.15 in experiment [1] (30 mM KCl, depolarization, AtT20 cells).
With `C[C@H](N)C(=O)NCC(=O)N[C@H]1CSSC[C@@H](C(=O)O)NC(=O)[C@H](CO)NC(=O)[C@H]([C@@H](C)O)NC(=O)[C@H](Cc2ccccc2)NC(=O)[C@H]([C@@H](C)O)NC(=O)[C@H](CCCCN)NC(=O)[C@H](Cc2c[nH]c3ccccc23)NC(=O)[C@H](Cc2ccccc2)NC(=O)[C@H](Cc2ccccc2)NC(=O)[C@H](CC(N)=O)NC(=O)[C@H](CCCCN)NC1=O` [somatostatin], the “fluorescent change (F/FO)” value in experiment [1] (200 nM, AtT20 cells, n = 6 wells) was −0.088.
As for `COc1ccc2[nH]c([S+]([O-])Cc3ncc(C)c(OC)c3C)nc2c1` (stereo not shown) [omeprazole], the “change in GPCR-sensitive fluorescence during treatment” value in experiment [1] (cell line not specified (AtT20 / HL-1), Figure 5) is listed as “no change in fluorescence”.
Regarding `N=C(N)NC(=O)c1nc(Cl)c(N)nc1N` [amiloride], the “GIRK channel blocking effect” value in experiment [1] (tested up to 10 μM, AtT20 and HL-1 cells screened, cell line not specified) was “no blocking effect”.
For the compound `Cc1cc(CO)nc2cc3c(cc12)OC(C)(C)[C@H](O)[C@H]3NCCc1ccccc1` [NTC-801], in the experiment on GIRK1/GIRK4 channels, the “concentration range of GIRK1/GIRK4 channel block” value is “nanomolar concentrations”. Moreover, in the experiment on atrial fibrillation, the “effect in canine model of atrial fibrillation” value is recorded as “converted AF to sinus rhythm”.
As for `Cc1nc2c(OCc3ccccc3)cccn2c1CC#N` [SCH-28080, 2-methyl-8-(phenylmethoxy)imidazo[1,2-A]pyridine-3-acetonitrile], the IC50 in experiment [2] amounted to 300 nM; in experiment [1], 200 nM.
For `Nc1ncnc2c1ncn2[C@@H]1O[C@H](CO)[C@@H](O)[C@H]1O` [adenosine], the “change in the fluorescent signal” value in experiment [1] (10 μM, AtT20 cells) is “no change”.

Broadly, the EC50 is the concentration at which the effect is half-maximal. Usually IC50 stands for the point on the concentration scale where inhibition reaches its midpoint. Read a low IC50 as higher potency.
